Test results published in patent US20240327787A1, “CULTURE MEDIUM, COATING MATRIX AND METHOD FOR EXPANDING MIDBRAIN DOPAMINERGIC PROGENITOR CELLS” (NUWACELL BIOTECHNOLOGIES CO., LTD., priority 2022, published 2024).

Columns and labels:
Format in all cases: cell-based, human
[1] = tested on: imDAPs; assay: imDAP maturation, cell morphology and adhesion (bright-field); details: 1 μM IWR1 for at least 3 days vs without; VTN-coated; 1% HhPLT medium
Procedure: were produced according to the method described in CN201910169525.0, and expanded as described in Example 10. The expanded […] were seeded on VTN-coated (1 μg/cm^2) plates at a density of 5×10^5 cells/cm^2 (Day 0), and cultured in the maturation medium ([…]) supplemented with 1 μM IWR1. MM-P used in Example 11 contained the following components: NeurobasalTM medium, 1% (v/v) Glutamax, 0.5 mM Db-cAMP sodium salt, 200 μM ascorbic acid, 20 ng/ml BDNF, 20 ng/ml GDNF, 1 ng/ml TGF-β3, 10 μM DAPT, hPLT (0.5%, 1%, 2%). MM-H used in Example 11 contained the following components: NeurobasalTM medium, 1% (v/v) Glutamax, 0.5 mM Db-cAMP sodium salt, 200 μM ascorbic acid, 20 ng/ml BDNF, 20 ng/ml GDNF, 1 ng/ml TGF-β3, […], HhPLT (0.5%, 1%, 2%). MM-B used in Example 11 contained the following components: Neurobasal, 1% (v/v) Glutamax, 0.5 mM Db-cAMP sodium salt, 200 μM ascorbic acid, 20 ng/ml BDNF, 20 ng/ml GDNF, 1 ng/ml TGF-β 3, 10 μM DAPT, 2% (v/v) B27 (50×) (as control). The above HhPLT was produced from hPLT as follows. The hPLT was centrifuged at 3000 g for 30 min at 4° C. to obtain the supernatant, which was heated to 56° C. for 30 min. […] Cells were collected and counted by Vi-cell cytometer. The cells were analyzed by RT-qPCR for EN1, LMX1A, FOXA2, NURR1, SOX6 and TH gene expression. […]

[2] = tested on: imDAPs; assay: qRT-PCR analysis of mDA maturation associated markers; details: 1 μM IWR1 vs without IWR1; day 7
Procedure: 1. For qRT-PCR analysis of mRNA gene expression, RNA should be harvested from at least 2×10^6 cells. 2. Harvest cells, add 350 μl of buffer RLT+1% (vol/vol) β-mercaptoethanol to the well, transfer the lysate to a 1.5 ml tube, and put it immediately on ice. 3. Perform RNA extraction using the Tiangen Kit (DP430), and follow the manufacturer's protocol 'Purification of total RNA from animal and human cells'. 4. When the RNA extraction was completed, determine the RNA concentration using a Nanodrop instrument. 5. Perform the first-strand cDNA synthesis reaction with lug of RNA using the HiScriptTM II Q RT SuperMIX for qPCR (+gDNA wiper) Kit (Vazyme, #R223-01) for RT-qPCR. Follow the manufacturer's 'First-Strand cDNA Synthesis' protocol. This reaction would yield a 20μl product. 6. Dilute the 10 μl cDNA product in 80 μl of nuclease-free water. 7. […] Analyze the samples by running a quantitative PCR on the LightCycler 480 instrument using a 40× cycle two-step protocol with a 60° C., 60 sec annealing/elongation step and a 95° C., 30 sec denaturation step. […] Cells were collected and counted by Vi-cell cytometer. The cells were analyzed by RT-qPCR for EN1, LMX1A, FOXA2, NURR1, SOX6 and TH gene expression. […]

[3] = tested on: imDAPs; assay: qRT-PCR analysis of imDAP-specific markers during expansion; details: 3 μM CHIR99021 vs 0 and 1.25 μM; 5 days expansion
Procedure: 1. For qRT-PCR analysis of mRNA gene expression, RNA should be harvested from at least 2×10^6 cells.
2. Harvest cells, add 350 μl of buffer RLT+1% (vol/vol) β-mercaptoethanol to the well, transfer the lysate to a 1.5 ml tube, and put it immediately on ice.
3. Perform RNA extraction using the Tiangen Kit (DP430), and follow the manufacturer's protocol ‘Purification of total RNA from animal and human cells’.
4. When the RNA extraction was completed, determine the RNA concentration using a Nanodrop instrument.
5. Perform the first-strand cDNA synthesis reaction with lug of RNA using the HiScript™ II Q RT SuperMIX for qPCR (+gDNA wiper) Kit (Vazyme, #R223-01) for RT-qPCR. Follow the manufacturer's ‘First-Strand cDNA Synthesis’ protocol. This reaction would yield a 20μl product.
6. […]
8. Analyze the samples by running a quantitative PCR on the LightCycler 480 instrument using a 40× cycle two-step protocol with a 60° C., 60 sec annealing/elongation step and a 95° C., 30 sec denaturation step. […]
imDAPs were produced according to the method described in CN201910169525.0. […] When imDAPs reach 100% confluence (4-5 days), cells were passaged enzymatically with 1× TrypLE, centrifuged at 250 g for 5 minutes, counted and replaced on new VTN-coated plates (1 μg/cm^2) at a density of 1×10^5 cells/cm^2 in the expansion medium. imDAPs were continuously expanded for 6 passages. […]

| Compound | cell morphology on day 7 during maturation (FIG. 7D) [1] | expression of NURR1, SOX6 and TH, qRT-PCR (FIG. 7E) [2] | mDAP marker expression (EN1, LMX1A, FOXA2), qRT-PCR (FIG. 1C) [3] |
| --- | --- | --- | --- |
| O=C(Nc1cccc2cccnc12)c1ccc(N2C(=O)[C@@H]3[C@H](C2=O)[C@@H]2C=C[C@H]3C2)cc1 [IWR1] | showed more obvious neural fibers | increased |  |
| Cc1cnc(-c2cnc(NCCNc3ccc(C#N)cn3)nc2-c2ccc(Cl)cc2Cl)[nH]1 [CHIR99021] |  |  | allowed better maintenance of mDAP marker expression |
